Read-outs that look alike come from different tables or passages of the source.
Columns and labels:
[1] = molecular target: Human μ-opioid receptor (Homo sapiens, UniProt P35372); assay: biochemical; type: binding
[2] = molecular target: Human α2δ-1 subunit of Cav2.2 calcium channel (Homo sapiens, UniProt P54289); assay: biochemical; type: binding
Chain of Human α2δ-1 subunit of Cav2.2 calcium channel (P54289 25-1103): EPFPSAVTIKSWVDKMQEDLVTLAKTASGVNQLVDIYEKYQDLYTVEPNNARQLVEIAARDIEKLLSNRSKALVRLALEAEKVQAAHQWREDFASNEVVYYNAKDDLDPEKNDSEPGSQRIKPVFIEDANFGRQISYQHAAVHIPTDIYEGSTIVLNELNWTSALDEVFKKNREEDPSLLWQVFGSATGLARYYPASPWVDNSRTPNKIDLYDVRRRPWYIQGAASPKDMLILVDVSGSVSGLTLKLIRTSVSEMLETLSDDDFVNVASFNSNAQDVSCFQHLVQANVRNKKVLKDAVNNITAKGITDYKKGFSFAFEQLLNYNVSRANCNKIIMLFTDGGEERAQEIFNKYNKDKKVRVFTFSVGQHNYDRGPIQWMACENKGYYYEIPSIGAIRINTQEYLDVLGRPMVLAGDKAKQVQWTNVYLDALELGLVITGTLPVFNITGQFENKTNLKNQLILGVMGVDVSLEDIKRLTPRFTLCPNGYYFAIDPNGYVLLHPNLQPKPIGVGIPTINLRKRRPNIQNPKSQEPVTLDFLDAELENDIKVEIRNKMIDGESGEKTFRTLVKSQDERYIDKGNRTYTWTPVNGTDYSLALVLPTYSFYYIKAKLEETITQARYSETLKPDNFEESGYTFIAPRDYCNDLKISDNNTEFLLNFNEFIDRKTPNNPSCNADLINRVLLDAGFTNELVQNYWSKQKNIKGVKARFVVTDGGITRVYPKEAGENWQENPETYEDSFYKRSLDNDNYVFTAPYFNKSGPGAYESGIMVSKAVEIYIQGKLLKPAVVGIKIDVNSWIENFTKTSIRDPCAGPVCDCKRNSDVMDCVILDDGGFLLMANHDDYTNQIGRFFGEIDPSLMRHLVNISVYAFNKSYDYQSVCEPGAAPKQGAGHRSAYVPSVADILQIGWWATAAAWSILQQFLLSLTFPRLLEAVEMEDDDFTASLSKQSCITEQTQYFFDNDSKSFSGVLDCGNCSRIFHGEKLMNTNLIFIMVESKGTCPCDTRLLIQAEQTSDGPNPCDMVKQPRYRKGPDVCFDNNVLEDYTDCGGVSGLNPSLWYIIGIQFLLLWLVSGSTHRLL

Chain of Human μ-opioid receptor (P35372 whole entry): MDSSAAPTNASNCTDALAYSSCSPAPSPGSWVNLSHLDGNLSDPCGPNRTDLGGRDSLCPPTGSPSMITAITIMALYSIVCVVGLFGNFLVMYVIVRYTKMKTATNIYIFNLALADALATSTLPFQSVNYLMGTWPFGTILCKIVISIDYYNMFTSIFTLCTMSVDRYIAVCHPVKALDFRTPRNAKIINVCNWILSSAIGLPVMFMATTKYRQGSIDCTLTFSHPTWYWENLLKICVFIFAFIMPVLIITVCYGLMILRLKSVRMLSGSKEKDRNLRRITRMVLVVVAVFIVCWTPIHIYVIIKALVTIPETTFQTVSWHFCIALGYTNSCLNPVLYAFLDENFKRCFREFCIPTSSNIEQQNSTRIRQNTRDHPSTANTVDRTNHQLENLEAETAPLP

## CCCC(c1nc2ccc(Br)cc2c(=O)n1CC)C1CCNCC1 (stereo not shown) [Example 187, 6-Bromo-3-ethyl-2-(1-(piperidin-4-yl)butyl)quinazolin-4(3H)-one]
[1]; read-out: μ-binding
  Ki: > 500 nM
[2]; read-out: α2δ-1 binding
  Ki: 500 to 5000 nM

## CCC[C@@H](c1nc2cccnc2c(=O)n1CC)N1CCN[C@@H](C)C1 [Example 71, 3-ethyl-2-((S)-1-((S)-3-methylpiperazin-1-yl)butyl)pyrido[3,2-d]pyrimidin-4(3H)-one]
[1]
  Ki: > 500 nM
[2]
  Ki: > 5000 nM

## CCC[C@@H](c1nc2ccc(NCC[C@@]3(c4ccccn4)CCOC4(CCCC4)C3)cc2c(=O)n1CC)N1C[C@@H](C)N[C@@H](C)C1 [Example 158, 2-((S)-1-((3S,5R)-3,5-Dimethylpiperazin-1-yl)butyl)-3-ethyl-6-((2-((R)-9-(pyridin-2-yl)-6-oxaspiro[4.5]decan-9-yl)ethyl)amino)quinazolin-4(3H)-one]
[1]
  Ki: > 500 nM
[2]
  Ki: < 500 nM

## CCCC(c1nc2cc(C)c(Br)cc2c(=O)n1CC)N1CCNCC1 (stereo not shown) [Example 85, 6-bromo-3-ethyl-7-methyl-2-(1-(piperazin-1-yl)butyl)quinazolin-4(3H)-one]
[1]
  Ki: > 500 nM
[2]
  Ki: < 500 nM

## CCCC(c1nc2ccccc2c(=O)n1CCOC)N1CCNCC1 (stereo not shown) [Example 117, 3-(2-methoxyethyl)-2-(1-(piperazin-1-yl)butyl)quinazolin-4(3H)-one]
[1]; read-out: μ-binding
  Ki: > 500 nM
[2]
  Ki: 500 to 5000 nM

## CCCC(c1nc2ccccc2c(=O)n1CCNC)N1C[C@@H](C)N[C@@H](C)C1 (stereo partly drawn) [Example 127, 2-(1-((3S,5R)-3,5-Dimethylpiperazin-1-yl)butyl)-3-(2-(methylamino)ethyl)quinazolin-4(3H)-one]
[1]; read-out: μ-binding
  Ki: > 500 nM
[2]
  Ki: 500 to 5000 nM

## CCC[C@H](c1nc2ccc(F)cc2c(=O)n1CC)N1CCN[C@@H](C)C1 [Example 214, 3-ethyl-6-fluoro-2-((R)-1-((S)-3-methylpiperazin-1-yl)butyl)quinazolin-4(3H)-one]
[1]
  Ki: 100 to 500 nM
[2]
  Ki: < 500 nM

## CCC[C@H](c1nc2ccc(Br)cc2c(=O)n1CC)[C@@H]1CCNCC1(F)F [Example 194, 6-Bromo-2-((S)-1-((S)-3,3-difluoropiperidin-4-yl)butyl)-3-ethylquinazolin-4(3H)-one]
[1]
  Ki: > 500 nM
[2]
  Ki: > 5000 nM

## CCC[C@H](c1nc2ccc(Cl)cc2c(=O)n1CC)N1CCN[C@@H](CF)C1 [Example 230, 6-chloro-3-ethyl-2-((R)-1-((R)-3-(fluoromethyl)piperazin-1-yl)butyl)quinazolin-4(3H)-one]
[1]
  Ki: > 500 nM
[2]
  Ki: 500 to 5000 nM

## CCC[C@@H](c1nc2ccc(Br)cc2c(=O)n1CC)N1CCN[C@@H](C)C1 [Example 99, 6-bromo-3-ethyl-2-((S)-1-((S)-3-methylpiperazin-1-yl)butyl)quinazolin-4(3H)-one]
[1]
  Ki: > 500 nM
[2]
  Ki: < 500 nM

## CCC[C@H](c1nc2cnc(C(F)(F)F)cc2c(=O)n1CC)N1CCN[C@H](C)C1 [Example 233, 3-Ethyl-2-((R)-1-((R)-3-methylpiperazin-1-yl)butyl)-6-(trifluoromethyl)pyrido[3,4-d]pyrimidin-4(3H)-one]
[1]
  Ki: > 500 nM
[2]
  Ki: < 500 nM

## CCC[C@H](c1nc2c(F)cc(F)cc2c(=O)n1CC)N1CCNCC1 [Example 200, (R)-3-ethyl-6,8-difluoro-2-(1-(piperazin-1-yl)butyl)quinazolin-4(3H)-one]
[1]
  Ki: 100 to 500 nM
[2]
  Ki: < 500 nM

## CCCC(c1nc2ccccc2c(=O)n1CCN(C)CCCc1ccccc1)N1C[C@@H](C)N[C@@H](C)C1 (stereo partly drawn) [Example 130, 2-(1-((3S,5R)-3,5-dimethylpiperazin-1-yl)butyl)-3-(2-(methyl(3-phenylpropyl)amino)ethyl)quinazolin-4(3H)-one]
[1]; read-out: μ-binding
  Ki: > 500 nM
[2]; read-out: α2δ-1 binding
  Ki: 500 to 5000 nM

## CCC[C@@H](c1nc2ccc(Br)cc2c(=O)n1CC)[C@H]1CCNCC1(F)F [Example 195, 6-bromo-2-((R)-1-((R)-3,3-difluoropiperidin-4-yl)butyl)-3-ethylquinazolin-4(3H)-one]
[1]
  Ki: > 500 nM
[2]
  Ki: < 500 nM

## CCC[C@@H](c1nc2ccc(Br)cc2c(=O)n1CC)N1CCN[C@@H](CCC(=O)O)C1 [Example 107, 3-((S)-4-((S)-1-(6-Bromo-3-ethyl-4-oxo-3,4-dihydroquinazolin-2-yl)butyl)piperazin-2-yl)propanoic acid]
[1]; read-out: μ-binding
  Ki: > 500 nM
[2]; read-out: α2δ-1 binding
  Ki: > 5000 nM

## CCC[C@H](c1nc2c(F)cc(F)cc2c(=O)n1C)N1CCN[C@@H](C)C1 [Example 225, 6,8-difluoro-3-methyl-2-((R)-1-((S)-3-methylpiperazin-1-yl)butyl)quinazolin-4(3H)-one]
[1]
  Ki: 100 to 500 nM
[2]
  Ki: 500 to 5000 nM

## CCC[C@@H](c1nc2cc(O[C@H](CNC)c3ccccc3)ccc2c(=O)n1C)N1C[C@@H](C)N[C@@H](C)C1 [Example 168, 2-((S)-1-((3S,5R)-3,5-dimethylpiperazin-1-yl)butyl)-3-methyl-7-((S)-2-(methylamino)-1-phenylethoxy)quinazolin-4(3H)-one]
[1]
  Ki: > 500 nM
[2]
  Ki: 500 to 5000 nM

## CCC[C@H](c1nc2ccc(N3C[C@H](C)OC4(CCNCC4)C3)cc2c(=O)n1CC)N1C[C@@H](C)N[C@@H](C)C1 [Example 153, 2-((R)-1-((3S,5R)-3,5-dimethylpiperazin-1-yl)butyl)-3-ethyl-6-((S)-2-methyl-1-oxa-4,9-diazaspiro[5.5]undecan-4-yl)quinazolin-4(3H)-one]
[1]; read-out: μ-binding
  Ki: > 500 nM
[2]; read-out: α2δ-1 binding
  Ki: 500 to 5000 nM

## CCC[C@@H](c1nc2ccncc2c(=O)n1CC)N1CCN[C@@H](C)C1 [Example 67, 3-ethyl-2-((S)-1-((S)-3-methylpiperazin-1-yl)butyl)pyrido[4,3-d]pyrimidin-4(3H)-one]
[1]
  Ki: > 500 nM
[2]
  Ki: > 5000 nM

## CCC[C@@H](c1nc2c(F)cc(Br)cc2c(=O)n1CC)N1CCN[C@@H](C)C1 [Example 52, 6-bromo-3-ethyl-8-fluoro-2-((S)-1-((S)-3-methylpiperazin-1-yl)butyl)quinazolin-4(3H)-one]
[1]
  Ki: > 500 nM
[2]
  Ki: > 5000 nM

## CCC[C@@H](c1nc2c(F)cc(OC)cc2c(=O)n1CC)N1CCNCC1 [Example 37, (S)-3-Ethyl-8-fluoro-6-methoxy-2-(1-(piperazin-1-yl)butyl)quinazolin-4(3H)-one]
[1]
  Ki: > 500 nM
[2]
  Ki: > 5000 nM

## CCC[C@@H](c1nc2ccc(Cl)cc2c(=O)n1CC)N1CCN[C@@H](CF)C1 [Example 231, 6-chloro-3-ethyl-2-((S)-1-((R)-3-(fluoromethyl)piperazin-1-yl)butyl)quinazolin-4(3H)-one]
[1]
  Ki: > 500 nM
[2]
  Ki: > 5000 nM

## CCCC(c1nc2ccccc2c(=O)n1CCN(C)CCc1ccccc1)N1C[C@@H](C)N[C@@H](C)C1 (stereo partly drawn) [Example 129, 2-(1-((3S,5R)-3,5-dimethylpiperazin-1-yl)butyl)-3-(2-(methyl(phenethyl)amino)ethyl)quinazolin-4(3H)-one]
[1]; read-out: μ-binding
  Ki: > 500 nM
[2]; read-out: α2δ-1 binding
  Ki: 500 to 5000 nM

## CCCC(c1nc2ccc(N3CC=C(c4ccccc4O)CC3)cc2c(=O)n1CC)N1C[C@@H](C)N[C@@H](C)C1 (stereo partly drawn) [Example 148, 2-(1-((3S,5R)-3,5-dimethylpiperazin-1-yl)butyl)-3-ethyl-6-(4-(2-hydroxyphenyl)-5,6-dihydropyridin-1(2H)-yl)quinazolin-4(3H)-one]
[1]
  Ki: > 500 nM
[2]
  Ki: < 500 nM

## CCCC(c1nc2ccc(Br)cc2c(=O)n1CCC)N1CCNCC1 (stereo not shown) [Example 82, 6-bromo-2-(1-(piperazin-1-yl)butyl)-3-propylquinazolin-4(3H)-one]
[1]
  Ki: 100 to 500 nM
[2]
  Ki: < 500 nM

## CCC[C@H](c1nc2c(F)cccc2c(=O)n1CC)N1CCN[C@@H](C)C1 [Example 203, 3-ethyl-8-fluoro-2-((R)-1-((S)-3-methylpiperazin-1-yl)butyl)quinazolin-4(3H)-one]
[1]
  Ki: > 500 nM
[2]
  Ki: < 500 nM

## CCCC(c1nc2cc(N3CCCC3)ccc2c(=O)n1CC)N1C[C@@H](C)N[C@@H](C)C1 (stereo partly drawn) [Example 137, 2-(1-((3S,5R)-3,5-Dimethylpiperazin-1-yl)butyl)-3-ethyl-7-(pyrrolidin-1-yl)quinazolin-4(3H)-one]
[1]
  Ki: > 500 nM
[2]
  Ki: < 500 nM

## CCC[C@@H](c1nc2ccc(O)cc2c(=O)n1CC)N1C[C@@H](C)N[C@@H](C)C1 [Example 36, 2-((S)-1-((3S,5R)-3,5-dimethylpiperazin-1-yl)butyl)-3-ethyl-6-hydroxyquinazolin-4(3H)-one]
[1]
  Ki: > 500 nM
[2]
  Ki: 500 to 5000 nM

## CCC[C@H](c1nc2cnc(C(F)(F)F)cc2c(=O)n1CC)N1CCN[C@@H](C)C1 [Example 234, 3-ethyl-2-((R)-1-((S)-3-methylpiperazin-1-yl)butyl)-6-(trifluoromethyl)pyrido[3,4-d]pyrimidin-4(3H)-one]
[1]
  Ki: > 500 nM
[2]
  Ki: < 500 nM

## CCCC(c1nc2ccc(OC)cc2c(=O)n1CCOC)N1C[C@@H](C)N[C@@H](C)C1 (stereo partly drawn) [Example 120, 2-(1-((3S,5R)-3,5-dimethylpiperazin-1-yl)butyl)-6-methoxy-3-(2-methoxyethyl)quinazolin-4(3H)-one]
[1]
  Ki: > 500 nM
[2]
  Ki: < 500 nM

## CCC[C@H](c1nc2ccc(Br)cc2c(=O)n1CC)N1CCN(C)[C@@H](C)C1 [Example 112, 6-bromo-2-((R)-1-((S)-3,4-dimethylpiperazin-1-yl)butyl)-3-ethylquinazolin-4(3H)-one]
[1]
  Ki: < 100 nM
[2]
  Ki: 500 to 5000 nM

## CCCC(c1nc2cccc(O)c2c(=O)n1CC)N1C[C@@H](C)N[C@@H](C)C1 (stereo partly drawn) [Example 15, 2-(1-((3S,5R)-3,5-dimethylpiperazin-1-yl)butyl)-3-ethyl-5-hydroxyquinazolin-4(3H)-one]
[1]
  Ki: > 500 nM
[2]
  Ki: < 500 nM

## CCCC(c1nc2cc(-c3cccc(O)c3)ccc2c(=O)n1CC)N1C[C@@H](C)N[C@@H](C)C1 (stereo partly drawn) [Example 134, 2-(1-((3S,5R)-3,5-dimethylpiperazin-1-yl)butyl)-3-ethyl-7-(3-hydroxyphenyl)quinazolin-4(3H)-one]
[1]
  Ki: > 500 nM
[2]
  Ki: < 500 nM

## CCC[C@H](c1nc2ccc(Br)cc2c(=O)n1CC)N1CCN[C@H](C)C1 [Example 98, 6-bromo-3-ethyl-2-((R)-1-((R)-3-methylpiperazin-1-yl)butyl)quinazolin-4(3H)-one]
[1]
  Ki: > 500 nM
[2]
  Ki: < 500 nM

## CCCC(c1nc2cc(F)ccc2c(=O)n1CC)N1C[C@@H](C)N[C@@H](C)C1 (stereo partly drawn) [Example 11, 2-(1-((3S,5R)-3,5-dimethylpiperazin-1-yl)butyl)-3-ethyl-7-fluoroquinazolin-4(3H)-one]
[1]
  Ki: > 500 nM
[2]
  Ki: < 500 nM

Source: patent US20220002314A1 (priority 2018, published 2022)
